From ChEMBL document CHEMBL5465560, “Selectivity Literature for EUbOPEN Chemogenomic Library” (2024)

Assays:
[1] = target: T1, Serine/threonine-protein kinase LATS2 (Homo sapiens) (UniProt Q9NRM7); test: Selectivity interaction (KinomeScan (DiscoverX)) EUB0000092b LATS2; conditions: at 10 µM
T1 sequence (whole entry): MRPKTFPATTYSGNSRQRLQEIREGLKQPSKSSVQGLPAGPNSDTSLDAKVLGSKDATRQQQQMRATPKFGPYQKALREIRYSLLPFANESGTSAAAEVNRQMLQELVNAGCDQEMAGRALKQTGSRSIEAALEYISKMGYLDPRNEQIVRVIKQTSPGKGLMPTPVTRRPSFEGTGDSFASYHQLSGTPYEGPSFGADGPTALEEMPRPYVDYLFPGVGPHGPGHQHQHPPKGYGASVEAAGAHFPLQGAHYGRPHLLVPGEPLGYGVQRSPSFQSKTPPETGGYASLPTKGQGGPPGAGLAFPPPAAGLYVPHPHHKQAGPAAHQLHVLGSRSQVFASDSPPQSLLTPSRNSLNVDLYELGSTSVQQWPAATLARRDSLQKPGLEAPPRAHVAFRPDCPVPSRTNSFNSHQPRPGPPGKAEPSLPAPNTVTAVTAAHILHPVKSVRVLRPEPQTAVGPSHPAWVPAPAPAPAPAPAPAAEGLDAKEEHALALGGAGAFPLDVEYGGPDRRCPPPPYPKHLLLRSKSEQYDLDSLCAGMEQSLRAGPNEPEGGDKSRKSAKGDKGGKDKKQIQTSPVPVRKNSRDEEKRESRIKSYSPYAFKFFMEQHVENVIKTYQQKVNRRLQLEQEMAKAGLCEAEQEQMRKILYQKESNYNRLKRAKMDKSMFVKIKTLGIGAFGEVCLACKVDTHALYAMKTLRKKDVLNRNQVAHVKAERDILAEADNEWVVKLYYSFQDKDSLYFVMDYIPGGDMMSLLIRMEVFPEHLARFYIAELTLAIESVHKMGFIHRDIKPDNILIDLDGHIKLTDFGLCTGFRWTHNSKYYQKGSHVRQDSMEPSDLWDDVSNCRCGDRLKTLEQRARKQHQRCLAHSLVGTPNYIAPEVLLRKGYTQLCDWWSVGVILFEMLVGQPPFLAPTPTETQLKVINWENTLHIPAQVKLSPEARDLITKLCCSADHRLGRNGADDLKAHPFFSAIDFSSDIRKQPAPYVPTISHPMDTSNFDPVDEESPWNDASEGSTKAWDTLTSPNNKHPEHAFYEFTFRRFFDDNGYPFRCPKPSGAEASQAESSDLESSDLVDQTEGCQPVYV

[2] = target: Ribosomal protein S6 kinase alpha-6 (Homo sapiens, UniProt Q9UK32); test: Selectivity interaction (KinomeScan (DiscoverX)) EUB0001079a RPS6KA6; conditions: at 1 µM
Ribosomal protein S6 kinase alpha-6, sequence (Q9UK32 whole entry): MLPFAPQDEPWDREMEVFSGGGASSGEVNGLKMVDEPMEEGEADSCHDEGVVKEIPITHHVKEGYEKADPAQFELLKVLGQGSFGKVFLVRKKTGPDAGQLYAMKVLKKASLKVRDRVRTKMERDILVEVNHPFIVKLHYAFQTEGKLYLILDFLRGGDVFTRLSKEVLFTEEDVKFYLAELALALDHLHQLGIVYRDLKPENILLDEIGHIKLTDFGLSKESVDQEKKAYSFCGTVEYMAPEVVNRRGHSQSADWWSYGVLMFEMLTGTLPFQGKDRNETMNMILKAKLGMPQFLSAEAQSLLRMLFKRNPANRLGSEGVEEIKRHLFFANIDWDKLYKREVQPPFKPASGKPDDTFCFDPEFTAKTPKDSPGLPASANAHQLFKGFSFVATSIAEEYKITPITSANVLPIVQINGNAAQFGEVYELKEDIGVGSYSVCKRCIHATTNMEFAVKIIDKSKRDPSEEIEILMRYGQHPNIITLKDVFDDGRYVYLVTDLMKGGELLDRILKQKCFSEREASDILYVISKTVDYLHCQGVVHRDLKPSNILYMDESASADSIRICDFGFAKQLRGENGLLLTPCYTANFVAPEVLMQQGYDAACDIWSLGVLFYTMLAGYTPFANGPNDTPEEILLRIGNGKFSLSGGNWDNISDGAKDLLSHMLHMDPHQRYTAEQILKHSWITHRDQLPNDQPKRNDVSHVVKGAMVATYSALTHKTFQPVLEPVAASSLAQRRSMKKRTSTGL

[3] = target: Histone-lysine N-methyltransferase ASH1L (Homo sapiens) (UniProt Q9NR48); test: Selectivity interaction (Human bromodomain panel (DSF assay)) EUB0000233b ASH1L
[4] = target: Mitogen-activated protein kinase 14 (Homo sapiens, UniProt Q16539); test: Selectivity interaction (KinomeScan (DiscoverX)) EUB0000666a MAPK14; conditions: at 10 µM
[5] = target: NT-3 growth factor receptor (Homo sapiens, UniProt Q16288); test: Selectivity interaction (KinomeScan (DiscoverX)) EUB0000666a NTRK3; conditions: at 10 µM
NT-3 growth factor receptor, sequence (Q16288 32-839 limits assumed): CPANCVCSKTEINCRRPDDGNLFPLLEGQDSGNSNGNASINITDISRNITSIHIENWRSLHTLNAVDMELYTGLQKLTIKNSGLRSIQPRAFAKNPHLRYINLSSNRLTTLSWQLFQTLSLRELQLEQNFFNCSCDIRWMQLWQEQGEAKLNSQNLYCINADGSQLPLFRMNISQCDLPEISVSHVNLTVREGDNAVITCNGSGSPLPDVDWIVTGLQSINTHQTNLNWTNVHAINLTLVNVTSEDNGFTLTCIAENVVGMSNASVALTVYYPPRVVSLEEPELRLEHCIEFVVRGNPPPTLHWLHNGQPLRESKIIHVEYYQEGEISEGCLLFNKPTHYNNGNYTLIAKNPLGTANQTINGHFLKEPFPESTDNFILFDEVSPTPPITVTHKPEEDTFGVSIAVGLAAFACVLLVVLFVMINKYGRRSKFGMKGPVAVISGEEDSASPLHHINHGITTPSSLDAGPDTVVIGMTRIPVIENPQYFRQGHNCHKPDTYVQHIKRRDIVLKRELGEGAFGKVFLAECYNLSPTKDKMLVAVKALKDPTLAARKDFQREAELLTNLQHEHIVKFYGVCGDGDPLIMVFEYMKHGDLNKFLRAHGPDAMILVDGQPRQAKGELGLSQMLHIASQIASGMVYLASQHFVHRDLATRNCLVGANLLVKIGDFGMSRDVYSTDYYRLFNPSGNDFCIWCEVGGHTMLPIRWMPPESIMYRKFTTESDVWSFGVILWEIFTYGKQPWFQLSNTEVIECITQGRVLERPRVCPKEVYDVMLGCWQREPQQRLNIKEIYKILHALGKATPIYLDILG

[6] = target: T2, SNF-related serine/threonine-protein kinase (Homo sapiens) (UniProt Q9NRH2); test: Selectivity interaction (KinomeScan (DiscoverX)) EUB0000666a SNRK; conditions: at 10 µM
T2 sequence (whole entry): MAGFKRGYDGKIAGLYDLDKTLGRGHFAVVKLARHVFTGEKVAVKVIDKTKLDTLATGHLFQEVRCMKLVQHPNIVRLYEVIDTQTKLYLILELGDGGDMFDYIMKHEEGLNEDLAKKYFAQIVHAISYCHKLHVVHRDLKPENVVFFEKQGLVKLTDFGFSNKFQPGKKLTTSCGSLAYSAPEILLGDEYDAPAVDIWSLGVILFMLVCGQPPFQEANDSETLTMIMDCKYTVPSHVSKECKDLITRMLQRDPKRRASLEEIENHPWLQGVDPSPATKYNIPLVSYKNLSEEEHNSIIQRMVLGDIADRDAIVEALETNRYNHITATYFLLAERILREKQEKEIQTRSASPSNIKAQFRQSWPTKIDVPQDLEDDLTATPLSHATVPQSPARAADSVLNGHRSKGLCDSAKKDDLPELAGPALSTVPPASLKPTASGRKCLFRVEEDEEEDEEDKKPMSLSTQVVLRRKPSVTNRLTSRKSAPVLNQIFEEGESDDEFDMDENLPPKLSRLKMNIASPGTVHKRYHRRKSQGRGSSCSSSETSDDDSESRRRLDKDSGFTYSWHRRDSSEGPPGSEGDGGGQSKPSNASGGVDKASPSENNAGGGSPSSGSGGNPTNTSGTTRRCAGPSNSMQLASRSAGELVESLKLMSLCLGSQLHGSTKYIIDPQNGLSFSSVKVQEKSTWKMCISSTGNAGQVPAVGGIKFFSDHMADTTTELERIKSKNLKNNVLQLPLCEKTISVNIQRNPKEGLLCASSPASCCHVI

[7] = target: T3, Mitogen-activated protein kinase 13 (Homo sapiens) (UniProt O15264); test: Selectivity interaction (Millipore kinase profiler) EUB0000124b MAPK13; conditions: at 10 µM
T3 sequence (whole entry): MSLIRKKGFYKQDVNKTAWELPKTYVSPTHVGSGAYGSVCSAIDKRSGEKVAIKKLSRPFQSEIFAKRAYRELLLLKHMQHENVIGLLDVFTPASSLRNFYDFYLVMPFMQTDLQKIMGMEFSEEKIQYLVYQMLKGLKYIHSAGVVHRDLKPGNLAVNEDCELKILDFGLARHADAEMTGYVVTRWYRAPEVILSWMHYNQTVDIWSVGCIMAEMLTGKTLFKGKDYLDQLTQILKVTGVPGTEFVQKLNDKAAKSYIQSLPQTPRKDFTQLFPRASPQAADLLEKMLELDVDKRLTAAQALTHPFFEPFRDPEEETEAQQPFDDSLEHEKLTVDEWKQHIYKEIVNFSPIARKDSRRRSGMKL

[8] = target: Tyrosine-protein kinase JAK1 (Homo sapiens, UniProt P23458); test: Selectivity interaction (ActivX KiNativ screen (kinase selectivity in THP-1 cell lysates)) EUB0000639a JAK1; type: subcellular; conditions: lysate, at 0.01 µM
Tyrosine-protein kinase JAK1, sequence (P23458 whole entry): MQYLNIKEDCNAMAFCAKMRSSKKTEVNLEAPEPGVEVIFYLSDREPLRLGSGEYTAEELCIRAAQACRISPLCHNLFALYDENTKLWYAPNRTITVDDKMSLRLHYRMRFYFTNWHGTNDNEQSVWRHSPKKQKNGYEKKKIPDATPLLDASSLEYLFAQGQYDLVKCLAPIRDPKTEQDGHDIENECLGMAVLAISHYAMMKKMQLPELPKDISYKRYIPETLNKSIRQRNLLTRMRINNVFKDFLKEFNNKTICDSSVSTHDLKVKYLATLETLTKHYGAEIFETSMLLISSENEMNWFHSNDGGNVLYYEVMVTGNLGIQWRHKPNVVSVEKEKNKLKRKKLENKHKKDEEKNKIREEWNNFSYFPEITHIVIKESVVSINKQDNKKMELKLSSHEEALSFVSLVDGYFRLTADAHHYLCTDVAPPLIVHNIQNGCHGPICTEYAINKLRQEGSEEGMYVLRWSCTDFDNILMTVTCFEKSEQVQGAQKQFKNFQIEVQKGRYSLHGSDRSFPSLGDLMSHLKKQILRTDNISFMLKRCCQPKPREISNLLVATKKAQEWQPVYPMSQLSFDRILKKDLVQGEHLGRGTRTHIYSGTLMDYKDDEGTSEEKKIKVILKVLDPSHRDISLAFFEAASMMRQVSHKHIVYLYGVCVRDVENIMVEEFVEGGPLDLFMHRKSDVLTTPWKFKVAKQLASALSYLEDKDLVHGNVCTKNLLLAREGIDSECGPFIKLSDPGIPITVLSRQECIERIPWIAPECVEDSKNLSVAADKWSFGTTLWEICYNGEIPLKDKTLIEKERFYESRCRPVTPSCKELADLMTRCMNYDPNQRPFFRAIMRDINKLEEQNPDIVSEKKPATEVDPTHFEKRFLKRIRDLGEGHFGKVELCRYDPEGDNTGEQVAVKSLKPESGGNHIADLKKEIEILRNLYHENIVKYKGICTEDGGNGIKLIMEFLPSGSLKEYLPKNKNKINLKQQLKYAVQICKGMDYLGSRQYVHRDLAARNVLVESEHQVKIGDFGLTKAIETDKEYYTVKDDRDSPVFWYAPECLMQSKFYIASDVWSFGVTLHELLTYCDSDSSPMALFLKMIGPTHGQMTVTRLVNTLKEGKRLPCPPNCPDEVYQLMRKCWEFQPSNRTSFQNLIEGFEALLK

[9] = system: Mast/stem cell growth factor receptor Kit (Homo sapiens), P10721 [T670I]; test: (§1) Selectivity interaction (SelectScreen profiling (Invitrogen)) EUB0000607a KIT; conditions: at 2 µM
Mast/stem cell growth factor receptor Kit (Homo sapiens), P10721 [T670I], sequence (P10721 whole entry T670I): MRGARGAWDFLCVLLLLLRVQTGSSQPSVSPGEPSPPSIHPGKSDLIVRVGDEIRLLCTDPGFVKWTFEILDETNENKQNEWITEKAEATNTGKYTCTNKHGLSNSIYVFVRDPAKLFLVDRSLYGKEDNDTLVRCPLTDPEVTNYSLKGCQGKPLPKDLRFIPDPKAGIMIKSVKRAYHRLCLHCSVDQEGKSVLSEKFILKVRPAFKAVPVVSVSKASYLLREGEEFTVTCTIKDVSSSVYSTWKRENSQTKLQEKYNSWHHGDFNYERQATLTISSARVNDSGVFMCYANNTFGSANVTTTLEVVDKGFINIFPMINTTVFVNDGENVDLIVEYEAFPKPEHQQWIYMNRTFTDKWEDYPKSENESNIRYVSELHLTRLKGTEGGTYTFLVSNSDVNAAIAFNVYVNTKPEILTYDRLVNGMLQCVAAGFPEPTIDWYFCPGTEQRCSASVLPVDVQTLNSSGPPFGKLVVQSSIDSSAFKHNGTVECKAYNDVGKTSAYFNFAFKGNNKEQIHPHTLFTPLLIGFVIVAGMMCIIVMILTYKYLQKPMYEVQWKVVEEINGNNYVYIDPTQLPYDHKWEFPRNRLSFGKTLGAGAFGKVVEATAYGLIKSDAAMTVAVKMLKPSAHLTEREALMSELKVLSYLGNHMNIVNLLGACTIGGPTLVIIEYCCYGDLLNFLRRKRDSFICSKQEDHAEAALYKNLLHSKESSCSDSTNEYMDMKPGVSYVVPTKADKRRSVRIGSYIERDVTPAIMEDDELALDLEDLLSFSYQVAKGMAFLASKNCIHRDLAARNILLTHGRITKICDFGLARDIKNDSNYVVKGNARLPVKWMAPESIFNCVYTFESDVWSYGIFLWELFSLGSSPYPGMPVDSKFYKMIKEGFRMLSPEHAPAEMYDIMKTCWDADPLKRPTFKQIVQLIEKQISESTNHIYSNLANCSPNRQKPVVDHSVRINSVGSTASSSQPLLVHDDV

[10] = target: Mast/stem cell growth factor receptor Kit (Homo sapiens, UniProt P10721); test: as §1; conditions: at 2 µM
Mast/stem cell growth factor receptor Kit, sequence (P10721 whole entry): as the sequence (P10721 whole entry T670I) above, with I670T counted along it

[11] = target: Protein-tyrosine kinase 6 (Homo sapiens, UniProt Q13882); test: Selectivity interaction (Ambit KINOMEscan and KiNATiv profiling in Jurkat cells) EUB0000090b PTK6; type: cell-based; conditions: at 1 µM
[12] = target: Phosphatidylinositol 4,5-bisphosphate 3-kinase catalytic subunit gamma isoform (Homo sapiens) (UniProt P48736); test: Selectivity interaction (ActivX KiNativ screen (ex vivo kinase selectivity in human PBMCs)) EUB0001619a PIK3CG; type: cell-based; conditions: PBMC, at 1 µM
Phosphatidylinositol 4,5-bisphosphate 3-kinase catalytic subunit gamma isoform (Homo sapiens), sequence (P48736 whole entry, looked up, canonical isoform): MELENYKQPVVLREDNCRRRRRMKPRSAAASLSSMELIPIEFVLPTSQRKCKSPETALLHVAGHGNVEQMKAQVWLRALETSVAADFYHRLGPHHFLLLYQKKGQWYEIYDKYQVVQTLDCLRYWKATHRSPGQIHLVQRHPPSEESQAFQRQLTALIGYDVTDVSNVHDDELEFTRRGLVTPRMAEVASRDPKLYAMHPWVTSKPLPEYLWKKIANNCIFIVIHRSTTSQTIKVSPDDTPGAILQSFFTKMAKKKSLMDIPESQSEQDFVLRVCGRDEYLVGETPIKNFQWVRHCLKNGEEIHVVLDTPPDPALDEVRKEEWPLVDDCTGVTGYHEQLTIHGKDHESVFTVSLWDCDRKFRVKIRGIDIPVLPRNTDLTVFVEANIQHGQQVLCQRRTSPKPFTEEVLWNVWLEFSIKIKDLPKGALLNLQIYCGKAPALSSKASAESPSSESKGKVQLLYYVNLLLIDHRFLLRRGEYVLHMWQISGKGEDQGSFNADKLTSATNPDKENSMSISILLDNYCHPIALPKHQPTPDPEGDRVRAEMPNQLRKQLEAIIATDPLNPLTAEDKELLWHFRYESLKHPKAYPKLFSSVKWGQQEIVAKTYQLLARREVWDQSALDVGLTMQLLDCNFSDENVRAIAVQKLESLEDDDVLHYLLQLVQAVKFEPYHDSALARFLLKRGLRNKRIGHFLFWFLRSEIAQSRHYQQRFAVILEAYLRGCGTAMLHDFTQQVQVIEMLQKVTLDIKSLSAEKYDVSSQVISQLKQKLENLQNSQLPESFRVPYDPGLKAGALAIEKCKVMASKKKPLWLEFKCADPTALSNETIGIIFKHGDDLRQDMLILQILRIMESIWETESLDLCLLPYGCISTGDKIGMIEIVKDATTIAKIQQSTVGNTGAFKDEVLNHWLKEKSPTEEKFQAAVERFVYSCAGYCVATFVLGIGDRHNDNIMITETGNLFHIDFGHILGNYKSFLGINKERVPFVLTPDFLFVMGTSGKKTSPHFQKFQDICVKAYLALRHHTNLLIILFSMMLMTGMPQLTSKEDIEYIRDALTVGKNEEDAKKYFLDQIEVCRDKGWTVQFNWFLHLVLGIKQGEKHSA

**Q.** Which % of control [1] does the source give for `CCC(=O)N1CCN(c2ccc(-n3c(=O)ccc4cnc5ccc(-c6cnc7ccccc7c6)cc5c43)cc2C(F)(F)F)CC1` here?
**A.** The % of control was 100%.

**Q.** `Nc1cnc(N2CCc3cc(S(=O)(=O)Nc4c(F)cc(Cl)cc4F)cc(N4CCCC4=O)c32)nc1` [TP-020n] was tested. Which % of control [2] did it give?
**A.** Its % of control is 100%.

**Q.** `CN(C)CCCOc1ccc(-c2cc(NCCCn3cccn3)nc(S(C)(=O)=O)n2)cc1` was tested. Which dTM [3] did it give?
**A.** The dTM was less than 2 K.

**Q.** Which % of control [4] does the source give for `O=C(NOC[C@H](O)CO)c1ccc(F)c(F)c1Nc1ccc(I)cc1F` here?
**A.** Its % of control is 100%.

**Q.** And the % of control [5]?
**A.** Its % of control is 93%.

**Q.** And the % of control [6]?
**A.** The % of control was 100%.

**Q.** `CC(=O)Nc1cccc(-n2c(=O)n(C3CC3)c(=O)c3c(Nc4ccc(I)cc4F)n(C)c(=O)c(C)c32)c1` was tested. Which % of control [7] did it give?
**A.** The % of control was 109%.

**Q.** With `CC[C@@H]1[C@H](F)C(=O)N[C@@H]1COc1nccc2cc(C(N)=O)c(OC)cc12` [ZIMLOVISERTIB] as the compound, how does the % of inhibition [8] read?
**A.** The % of inhibition was -1.9%.

**Q.** `CNC(=O)Nc1ccc(-c2nc(N3CC4CCC(C3)O4)c3cnn(C4CCC5(CC4)OCCO5)c3n2)cc1` was tested. Which % of inhibition [9] did it give?
**A.** Its % of inhibition is 7%.

**Q.** And the % of inhibition [10]?
**A.** The % of inhibition was 10%.

**Q.** With `CN(C)C/C=C/C(=O)Nc1ccc(C(=O)N2CCCC(Nc3ncc(Cl)c(-c4c[nH]c5ccccc45)n3)C2)cc1` (configuration not stated) as the compound, how does the % of control [11] read?
**A.** Its % of control is 84%.

**Q.** Which % of inhibition [12] does the source give for `N#Cc1cccc(-c2c[nH]c3ncnc(N4CCOCC4)c23)c1` here?
**A.** Its % of inhibition is -6%.
